# Laboratory results published in US11273152B2, “TRPV2 antagonists” (Instituto de Medicina Molecular João Lobo Antunes, priority 2017, dated 2022).
# “Also recorded” adds a separate entry of the source.
# Legend:
# [1] = biological target: TRPV3 (Homo sapiens, UniProt Q8NET8); assay: Fluorescence cell-based assay, TRPV3; conditions: calcium 5 dye, duplicate
# Protocol: (§1) The assays were performed at SB Discovery (Glasgow, UK) on a fee-for-service basis. Human TRP cells were trypsinised, counted and seeded in black, clear-bottomed 96 well plates at a density of 50,000 cells per well in 100 μL volume and incubated overnight. Next day, the cells were loaded with calcium 5 dye or membrane potential dye. TRPV1-5, TRPA1, TRPM2, TRPM3, and TRPM8 were tested using the calcium 5 dye. TRPC1, TRPC3-7, and TRPM4-5 were tested using the membrane potential dye. Both dye solutions were made up in HEPES buffered Hank's balanced salt solution (HBSS). Dye solution (90 μL) was added to the wells and incubated at 37° C. for 1 hour. Test compounds and standard inhibitors (10 μL) were then added to the wells and incubated at room temperature for 10 minutes. The plates were then placed in the flexstation and fluorescence monitored every 1.52 seconds. After 20 seconds agonist was added and the fluorescence monitored for 2 minutes at 485 nm/525 nm and 530 nm/565 nm, Ex/Em, for the calcium 5 dye and the membrane potential dye respectively. Controls-TRPV1: capsazepine; TRPV2: tranilast; TRPV3: ruthenium red; TRPV4: ruthenium red; TRPV5: Gd^3+; TRPA1, ruthenium red; TRPC1: Gd^3+; TRPC3: Pyr3; TRPC4: ML 204; TRPC5: ML 204; TRPC6: ML 204; TRPC7: SKF 96365; TRPM2: 2-APB; TRPM3: Mef acid; TRPM4: clotrimazole; TRPM5: TPPO; TRPM8: 2-APB. […]
# [2] = biological target: TRPA1 (Homo sapiens, UniProt O75762); assay: Fluorescence cell-based assay, TRPA1; conditions: calcium 5 dye, spread in log units, duplicate
# Protocol: as §1
# [3] = biological target: TRPC1 (Homo sapiens, UniProt P48995); assay: Fluorescence cell-based assay, TRPC1; conditions: membrane potential dye, duplicate
# Protocol: as §1
# [4] = biological target: TRPC4 (Homo sapiens, UniProt Q9UBN4); assay: Fluorescence cell-based assay, TRPC4; conditions: membrane potential dye, duplicate
# Protocol: as §1
# [5] = biological target: TRPC5 (Homo sapiens, UniProt Q9UL62); assay: Fluorescence cell-based assay, TRPC5; conditions: membrane potential dye, duplicate
# Protocol: as §1
# [6] = biological target: TRPM2 (Homo sapiens, UniProt O94759); assay: Fluorescence cell-based assay, TRPM2; conditions: calcium 5 dye, duplicate
# Protocol: as §1
# [7] = biological target: TRPM3 (Homo sapiens, UniProt Q9HCF6); assay: Fluorescence cell-based assay, TRPM3; conditions: calcium 5 dye, duplicate
# Protocol: as §1
# [8] = biological target: T1, TRPV2 (Homo sapiens, UniProt Q9Y5S1); assay: Intracellular calcium imaging (Fura-2 AM) in HepG2 cells; assay type: cell-based; conditions: 1 at 5 μM
# T1 sequence (Q9Y5S1 1-764): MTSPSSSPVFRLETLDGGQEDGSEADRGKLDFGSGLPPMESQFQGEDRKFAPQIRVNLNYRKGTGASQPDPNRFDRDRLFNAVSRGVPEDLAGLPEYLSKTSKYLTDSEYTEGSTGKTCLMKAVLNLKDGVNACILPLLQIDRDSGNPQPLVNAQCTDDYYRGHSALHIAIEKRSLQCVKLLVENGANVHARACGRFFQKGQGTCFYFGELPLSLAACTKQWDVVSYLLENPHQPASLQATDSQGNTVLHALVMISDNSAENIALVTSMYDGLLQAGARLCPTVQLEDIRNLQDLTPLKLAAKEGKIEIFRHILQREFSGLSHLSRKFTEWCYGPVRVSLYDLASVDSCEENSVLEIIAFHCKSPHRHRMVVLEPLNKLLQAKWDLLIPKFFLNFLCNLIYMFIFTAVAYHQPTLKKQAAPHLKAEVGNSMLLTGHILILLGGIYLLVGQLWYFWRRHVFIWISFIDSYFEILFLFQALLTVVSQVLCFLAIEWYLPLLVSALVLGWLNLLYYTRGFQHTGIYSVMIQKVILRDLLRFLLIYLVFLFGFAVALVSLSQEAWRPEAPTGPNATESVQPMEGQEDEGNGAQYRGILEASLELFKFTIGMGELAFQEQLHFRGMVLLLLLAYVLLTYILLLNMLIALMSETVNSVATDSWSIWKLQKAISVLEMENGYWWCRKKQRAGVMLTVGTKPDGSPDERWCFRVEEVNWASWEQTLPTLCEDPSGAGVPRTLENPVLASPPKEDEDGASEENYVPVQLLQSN
# Protocol: Cells (ATCC) were grown to 50% confluency in DMEM (Gibco) supplemented with 10% FBS (Gibco), GlutaMax (Gibco), MEM and NEAA (Gibco), 4.5 g/L glucose and 0.11 g/L sodium pyruvate. Cells were seeded in μ-ibidi 8 well plates and transfected with TRPV2-RFP^34 (kindly gifted by Prof. Itaru Kojimu Gunma University, Japan). After 48 h of incubation, cells were subjected to calcium imaging. Intracellular calcium measurements were performed with Fura-2 AM (Life Technologies) and modified from previously described studies.^12 In short, 1 hour before the measurement, cells were loaded with 5 μM Fura-2-AM for 45 minutes. Cell medium was replaced by Tyrod's solution (119 mM NaCl, 5 mM KCl, 2 mM CaCl2, 2 mM MgCl2, 6 g/L glucose, 25 mM HEPES pH 7.4). Simultaneously, the respective treatment was added to the cells (final concentration of 1% DMSO (control), 5 μM piperlongumine and 10 μM tranilast) and cells were allowed to re-adjustment for 15 minutes. Fura-2 AM emissions from 340 nm and 380 nm excitation were recorded for 1 minute before TRPV2 was activated by addition of 4 μM or 20 μM cannabidiol (CBD). Image analysis was done using the MetaFluor Analyst software. The statistical analysis was performed with astatsa.com. After calcium imaging acquisition, the cells were immediately fixed with 4% paraformaldehyde for 15 min. […]
# [9] = tested on: NCI-60 cancer cell lines; assay: NCI-60 Human Tumor Cell Lines Screen; assay type: cell-based; conditions: Gl50 and IC50 -z scores; five concentrations
# Protocol: Piperlongumine was submitted to the NCI-60 Human Tumor Cell Lines Screen and its activity was measured at five concentration levels (0.01, 0.1, 1, 10 and 100 μM) in 59 NCI-60 cell lines with four dose response parameters (Gl50, IC50, LC50 and TGI). The TRPV2 normalized gene expression (averaged probe intensities combined from five microarray platforms) in NCI-60 cell lines was downloaded from the CellMiner database ^36,37. The Spearman correlation was used to test the interdependence between TRPV2 expression levels and piperlongumine IC50 values against 57 cancer cell lines.
# [10] = tested on: PC3 cell line; assay: Cell viability, PC3; assay type: cell-based; conditions: 5 and 10 μM, 24 hours
# Protocol: 5,000 cells/well were seeded in 96 well plates with DMEM containing 2% FBS. The next day piperlongumine was added at various concentrations. […] At 24, 48 and 72 hours the media was removed and replaced with CellTiter-Blue (Promega, 1:20 in media). The plate was incubated for 90 minutes before measuring fluorescence intensity.
# TRPC4, sequence (Q9UBN4 whole entry): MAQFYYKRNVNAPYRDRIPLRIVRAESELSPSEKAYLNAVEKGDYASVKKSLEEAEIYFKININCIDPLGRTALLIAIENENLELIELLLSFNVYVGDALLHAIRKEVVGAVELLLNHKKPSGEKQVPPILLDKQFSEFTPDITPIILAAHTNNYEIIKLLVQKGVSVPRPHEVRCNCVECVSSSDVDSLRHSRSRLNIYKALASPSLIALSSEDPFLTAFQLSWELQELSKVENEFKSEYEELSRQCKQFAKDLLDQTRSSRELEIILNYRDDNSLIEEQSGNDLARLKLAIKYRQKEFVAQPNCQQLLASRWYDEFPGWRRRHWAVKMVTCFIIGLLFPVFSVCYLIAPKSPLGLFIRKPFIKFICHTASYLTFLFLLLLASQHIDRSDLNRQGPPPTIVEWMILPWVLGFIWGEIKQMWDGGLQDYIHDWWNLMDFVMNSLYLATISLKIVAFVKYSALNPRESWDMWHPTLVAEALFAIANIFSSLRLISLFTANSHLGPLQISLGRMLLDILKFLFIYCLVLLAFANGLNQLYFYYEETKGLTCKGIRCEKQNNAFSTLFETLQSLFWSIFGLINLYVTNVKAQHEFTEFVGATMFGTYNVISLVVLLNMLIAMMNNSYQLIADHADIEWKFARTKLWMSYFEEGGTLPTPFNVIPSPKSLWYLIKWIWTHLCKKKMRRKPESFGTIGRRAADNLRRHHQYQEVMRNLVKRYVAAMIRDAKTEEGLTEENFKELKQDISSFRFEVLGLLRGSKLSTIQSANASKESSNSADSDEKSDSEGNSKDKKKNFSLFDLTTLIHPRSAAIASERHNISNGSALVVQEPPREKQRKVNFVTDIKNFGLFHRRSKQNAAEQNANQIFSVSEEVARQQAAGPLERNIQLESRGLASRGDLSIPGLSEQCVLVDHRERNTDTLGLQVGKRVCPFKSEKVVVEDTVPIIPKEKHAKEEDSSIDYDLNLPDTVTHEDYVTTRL
# TRPC5, sequence (Q9UL62 whole entry): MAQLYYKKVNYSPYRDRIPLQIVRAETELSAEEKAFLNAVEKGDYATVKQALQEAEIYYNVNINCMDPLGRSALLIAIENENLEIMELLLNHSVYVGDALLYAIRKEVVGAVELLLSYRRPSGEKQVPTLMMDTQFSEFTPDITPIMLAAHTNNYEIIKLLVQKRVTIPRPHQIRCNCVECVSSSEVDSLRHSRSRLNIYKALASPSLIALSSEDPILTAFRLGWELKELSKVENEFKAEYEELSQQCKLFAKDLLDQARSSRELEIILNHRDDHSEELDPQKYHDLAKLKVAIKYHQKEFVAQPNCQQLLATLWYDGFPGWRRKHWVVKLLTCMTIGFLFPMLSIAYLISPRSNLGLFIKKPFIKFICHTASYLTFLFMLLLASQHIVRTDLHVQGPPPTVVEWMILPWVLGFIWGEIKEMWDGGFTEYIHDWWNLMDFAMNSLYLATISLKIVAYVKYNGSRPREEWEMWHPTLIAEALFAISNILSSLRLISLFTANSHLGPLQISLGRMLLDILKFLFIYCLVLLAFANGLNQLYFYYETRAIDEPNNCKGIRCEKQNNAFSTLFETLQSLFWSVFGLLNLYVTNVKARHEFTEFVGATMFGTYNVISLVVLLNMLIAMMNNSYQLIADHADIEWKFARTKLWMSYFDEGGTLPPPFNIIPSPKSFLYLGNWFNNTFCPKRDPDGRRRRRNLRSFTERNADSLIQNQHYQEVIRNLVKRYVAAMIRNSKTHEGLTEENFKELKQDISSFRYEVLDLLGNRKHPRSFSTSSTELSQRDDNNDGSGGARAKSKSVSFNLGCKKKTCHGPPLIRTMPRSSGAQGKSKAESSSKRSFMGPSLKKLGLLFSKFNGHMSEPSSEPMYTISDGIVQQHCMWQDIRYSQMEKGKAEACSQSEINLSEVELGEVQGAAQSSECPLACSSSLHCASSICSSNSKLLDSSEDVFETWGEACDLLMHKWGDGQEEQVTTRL
# TRPM2, sequence (O94759 whole entry): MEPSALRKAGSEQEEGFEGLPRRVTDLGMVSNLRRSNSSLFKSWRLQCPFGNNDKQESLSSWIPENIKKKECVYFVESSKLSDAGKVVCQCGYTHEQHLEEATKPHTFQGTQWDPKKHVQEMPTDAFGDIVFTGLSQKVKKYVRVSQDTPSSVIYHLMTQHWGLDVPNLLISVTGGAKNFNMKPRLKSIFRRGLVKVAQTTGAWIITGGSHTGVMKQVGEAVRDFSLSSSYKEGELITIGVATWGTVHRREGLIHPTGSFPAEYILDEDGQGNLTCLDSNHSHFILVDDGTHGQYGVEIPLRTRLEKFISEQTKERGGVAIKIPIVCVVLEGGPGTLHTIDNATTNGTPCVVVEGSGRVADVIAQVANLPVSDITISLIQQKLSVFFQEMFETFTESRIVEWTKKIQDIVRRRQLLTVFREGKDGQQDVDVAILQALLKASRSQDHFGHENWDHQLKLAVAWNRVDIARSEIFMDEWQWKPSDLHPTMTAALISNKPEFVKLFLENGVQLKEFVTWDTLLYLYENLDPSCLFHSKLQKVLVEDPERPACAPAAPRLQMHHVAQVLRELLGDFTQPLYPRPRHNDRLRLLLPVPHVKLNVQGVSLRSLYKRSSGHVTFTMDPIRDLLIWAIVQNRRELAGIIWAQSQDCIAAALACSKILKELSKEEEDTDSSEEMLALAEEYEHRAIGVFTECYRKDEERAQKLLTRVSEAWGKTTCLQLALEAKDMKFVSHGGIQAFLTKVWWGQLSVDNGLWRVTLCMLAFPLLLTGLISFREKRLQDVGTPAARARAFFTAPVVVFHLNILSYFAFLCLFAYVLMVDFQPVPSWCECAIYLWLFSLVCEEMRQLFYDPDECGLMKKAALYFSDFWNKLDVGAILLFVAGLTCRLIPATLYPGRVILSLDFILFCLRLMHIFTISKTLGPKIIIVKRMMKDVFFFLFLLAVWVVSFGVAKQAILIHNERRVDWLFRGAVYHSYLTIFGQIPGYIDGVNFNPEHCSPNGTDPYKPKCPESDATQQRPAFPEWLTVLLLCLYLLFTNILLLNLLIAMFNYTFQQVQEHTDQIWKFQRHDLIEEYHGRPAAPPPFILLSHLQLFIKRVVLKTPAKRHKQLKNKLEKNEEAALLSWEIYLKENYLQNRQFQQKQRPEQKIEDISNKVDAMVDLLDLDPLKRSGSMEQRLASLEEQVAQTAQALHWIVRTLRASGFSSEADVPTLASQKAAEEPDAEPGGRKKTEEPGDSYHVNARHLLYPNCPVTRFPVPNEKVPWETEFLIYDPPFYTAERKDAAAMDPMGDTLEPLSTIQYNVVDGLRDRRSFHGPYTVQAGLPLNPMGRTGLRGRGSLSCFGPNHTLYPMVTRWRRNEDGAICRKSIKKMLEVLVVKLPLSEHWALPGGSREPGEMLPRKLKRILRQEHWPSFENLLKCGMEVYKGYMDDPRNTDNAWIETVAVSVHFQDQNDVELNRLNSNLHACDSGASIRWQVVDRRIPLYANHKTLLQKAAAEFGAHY
# TRPA1, sequence (O75762 whole entry): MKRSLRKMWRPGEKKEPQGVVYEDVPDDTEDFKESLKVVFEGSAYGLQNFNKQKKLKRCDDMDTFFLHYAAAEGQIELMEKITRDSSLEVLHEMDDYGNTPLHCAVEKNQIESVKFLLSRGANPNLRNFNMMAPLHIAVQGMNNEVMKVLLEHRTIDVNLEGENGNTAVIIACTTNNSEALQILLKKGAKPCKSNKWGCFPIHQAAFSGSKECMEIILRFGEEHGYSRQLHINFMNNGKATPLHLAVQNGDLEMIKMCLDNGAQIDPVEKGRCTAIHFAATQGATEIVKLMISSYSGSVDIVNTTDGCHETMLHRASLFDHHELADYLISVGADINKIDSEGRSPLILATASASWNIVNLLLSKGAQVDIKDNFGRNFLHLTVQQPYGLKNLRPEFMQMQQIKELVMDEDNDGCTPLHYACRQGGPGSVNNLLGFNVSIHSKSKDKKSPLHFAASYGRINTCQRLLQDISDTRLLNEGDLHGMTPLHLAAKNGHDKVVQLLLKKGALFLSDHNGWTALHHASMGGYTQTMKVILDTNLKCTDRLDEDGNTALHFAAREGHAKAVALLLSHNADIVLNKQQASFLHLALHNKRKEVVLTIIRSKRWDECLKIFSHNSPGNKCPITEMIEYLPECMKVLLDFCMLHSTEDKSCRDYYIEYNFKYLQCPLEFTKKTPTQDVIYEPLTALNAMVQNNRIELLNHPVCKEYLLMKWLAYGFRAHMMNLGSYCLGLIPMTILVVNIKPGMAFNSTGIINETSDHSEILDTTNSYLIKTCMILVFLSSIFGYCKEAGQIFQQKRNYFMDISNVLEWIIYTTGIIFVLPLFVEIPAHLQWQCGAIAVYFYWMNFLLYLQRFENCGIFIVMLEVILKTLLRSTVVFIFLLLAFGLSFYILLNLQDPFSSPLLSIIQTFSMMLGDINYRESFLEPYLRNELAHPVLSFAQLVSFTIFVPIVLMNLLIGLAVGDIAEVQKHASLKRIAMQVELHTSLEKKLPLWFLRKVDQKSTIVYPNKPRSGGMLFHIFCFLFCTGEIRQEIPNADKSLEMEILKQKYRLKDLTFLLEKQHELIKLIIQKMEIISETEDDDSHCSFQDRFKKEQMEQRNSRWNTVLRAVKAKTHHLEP
compound,measurement,setting,value
"COc1cc(/C=C/C(=O)N2CCC=CC2=O)cc(OC)c1OC [Compound 1, piperlongumine]",IC50,[1],> 100 µM
same,IC50,[2],39 ± 0.15 µM
same,IC50,[3],> 100 µM
same,IC50,[4],> 100 µM
same,IC50,[5],> 100 µM
same,IC50,[6],> 100 µM
same,IC50,[7],> 100 µM
same,Inhibition of CBD evoked calcium influx in HepG2 cells,[8]; CBD 4 μM,No statistically significant difference is observed between all samples
same,Inhibition of CBD evoked calcium influx in HepG2 cells,"[8]; CBD 20 μM, 120 s post stimulation",significantly inhibited; also recorded: significant difference between control and 1 (p<0.01)
same,"Anti-proliferative activity across NCI-60, most sensitive tissues",[9],"blood, colon and skin cancer cell lines were found to be the most sensitive"
same,Cell viability,[10],cell viability was compromised
